Assay results: patent US10399940B2, “Substituted pyrrolidines and methods of use” (AbbVie S.à.r.l., priority 2016, dated 2019)
Like-named read-outs stand apart in the source and are kept apart here.

Molecular target: T1, F508delCFTR (Homo sapiens, UniProt P13569, DEL508-508)
T1 construct: expressed in transfected cells; host or cells: CFBE41o- (human lung derived epithelial cell line), doxycycline-inducible expression
Experiment: Cell Surface Expression-Horse Radish Peroxidase (CSE-HRP) assay
Type: cell-based
Details: CFBE41o-F508delCFTR-HRP cells; for Maximum % activity (with co-corrector): with co-corrector (2 μM); for Maximum % activity (with co-corrector) / Maximum % activity (without co-corrector): normalized to on-plate positive control, highest concentration 20 μM
Method in brief: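 Surface F508delCFTR-HRP was read by luminol luminescence after 18–24 h compound exposure at 33 °C, without or with 2 μM co-corrector. Doses were eight 3-fold steps from 20 μM, in doxycycline-induced (0.5 μg/mL, 72 h) CFBE41o- cells. % activity was scaled to the on-plate 2 μM positive control minus DMSO; EC50 came from a variable-slope sigmoid fit.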

[1] = test compound without co-corrector, 18-24 hours at 33° C., read-out: EC50 (without co-corrector)
[2] = with co-corrector (2 μM of 3-[(2R,4R)-4-({[1-(2,2-difluoro-1,3-benzodioxol-5-yl)cyclopropyl]carbonyl}amino)-7-methoxy-3,4-dihydro-2H-chromen-2-yl]benzoic acid), read-out: EC50 (with co-corrector)

T1 sequence (P13569 with tags, fused parts or gaps DEL508-508): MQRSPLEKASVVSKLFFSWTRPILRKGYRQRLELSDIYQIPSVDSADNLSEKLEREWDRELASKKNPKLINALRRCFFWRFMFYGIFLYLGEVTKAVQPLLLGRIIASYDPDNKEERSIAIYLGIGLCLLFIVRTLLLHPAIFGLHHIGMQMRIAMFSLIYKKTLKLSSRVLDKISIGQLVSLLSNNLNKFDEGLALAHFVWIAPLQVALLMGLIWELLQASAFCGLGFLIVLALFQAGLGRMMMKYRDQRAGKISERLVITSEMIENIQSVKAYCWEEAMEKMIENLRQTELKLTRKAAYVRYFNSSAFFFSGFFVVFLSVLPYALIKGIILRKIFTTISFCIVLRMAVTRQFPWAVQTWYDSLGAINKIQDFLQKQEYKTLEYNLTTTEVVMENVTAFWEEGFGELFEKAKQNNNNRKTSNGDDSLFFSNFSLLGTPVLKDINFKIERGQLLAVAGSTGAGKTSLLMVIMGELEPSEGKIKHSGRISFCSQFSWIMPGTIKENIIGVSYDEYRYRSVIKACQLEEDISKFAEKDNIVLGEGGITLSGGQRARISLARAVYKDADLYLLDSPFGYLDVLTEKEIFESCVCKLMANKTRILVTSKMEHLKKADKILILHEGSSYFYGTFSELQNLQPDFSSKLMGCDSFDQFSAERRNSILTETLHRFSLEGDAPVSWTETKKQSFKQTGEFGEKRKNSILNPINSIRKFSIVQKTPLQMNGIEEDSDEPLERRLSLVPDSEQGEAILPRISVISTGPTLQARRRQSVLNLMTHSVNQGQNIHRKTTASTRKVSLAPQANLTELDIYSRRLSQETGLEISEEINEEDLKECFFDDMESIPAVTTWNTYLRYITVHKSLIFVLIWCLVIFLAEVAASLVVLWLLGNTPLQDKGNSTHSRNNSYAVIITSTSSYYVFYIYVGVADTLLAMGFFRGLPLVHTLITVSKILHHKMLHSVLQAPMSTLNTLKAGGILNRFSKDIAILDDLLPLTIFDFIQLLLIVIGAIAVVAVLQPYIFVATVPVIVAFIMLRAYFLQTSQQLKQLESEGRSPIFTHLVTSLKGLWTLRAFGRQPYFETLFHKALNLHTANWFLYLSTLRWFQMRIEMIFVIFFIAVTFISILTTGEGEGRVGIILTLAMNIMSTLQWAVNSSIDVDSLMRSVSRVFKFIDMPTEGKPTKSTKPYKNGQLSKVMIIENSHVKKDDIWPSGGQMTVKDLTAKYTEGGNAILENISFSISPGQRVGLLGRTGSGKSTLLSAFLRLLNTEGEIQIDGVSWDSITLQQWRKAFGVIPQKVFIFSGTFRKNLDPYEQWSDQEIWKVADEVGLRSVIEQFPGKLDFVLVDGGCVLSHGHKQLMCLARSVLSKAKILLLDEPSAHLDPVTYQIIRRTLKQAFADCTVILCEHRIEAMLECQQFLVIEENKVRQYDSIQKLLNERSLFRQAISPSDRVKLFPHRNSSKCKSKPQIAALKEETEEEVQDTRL

| EC50 [1] [nM] | EC50 [2] [nM] | Maximum % activity (with co-corrector) | Maximum % activity (without co-corrector) | SMILES |
| --- | --- | --- | --- | --- |
| 1000 to 10000 | 1000 to 10000 | +++ (≥350) | ++ (≥100 and <200) | COc1ccc(-c2ccccc2[C@H]2[C@@H](OCc3cc(C(F)(F)F)cnc3OC)[C@H](C(C)(C)C)[C@@H](C(=O)O)N2C(=O)[C@@H]2CCCCO2)cn1 [Example 205, (2S,3R,4S,5S)-3-tert-butyl-5-[2-(6-methoxypyridin-3-yl)phenyl]-4-{[2-methoxy-5-(trifluoromethyl)pyridin-3-yl]methoxy}-1-[(2S)-oxane-2-carbonyl]pyrrolidine-2-carboxylic acid] |
| 1000 to 10000 | 1000 to 10000 | +++ (≥350) | +++ (≥200) | COc1ncc(C(F)(F)F)cc1CO[C@H]1[C@H](C(C)(C)C)[C@@H](C(=O)O)N(C(=O)[C@@H]2CCCCO2)[C@H]1c1ccccc1-c1ccc(OC(F)(F)F)cc1 [Example 206, (2S,3R,4S,5S)-3-tert-butyl-4-{[2-methoxy-5-(trifluoromethyl)pyridin-3-yl]methoxy}-1-[(2S)-oxane-2-carbonyl]-5-[4′-(trifluoromethoxy) [1,1′-biphenyl]-2-yl]pyrrolidine-2-carboxylic acid] |
| 1000 to 10000 | 1000 to 10000 | +++ (≥350) | ++ (≥100 and <200) | COc1ncc(C(F)(F)F)cc1CO[C@H]1[C@H](C(C)(C)C)[C@@H](C(=O)O)N(C(=O)[C@@H]2CCCCO2)[C@H]1c1ccccc1-c1ccc(C#N)cc1 [Example 207, (2S,3R,4S,5S)-3-tert-butyl-5-(4′-cyano[1,1′-biphenyl]-2-yl)-4-{[2-methoxy-5-(trifluoromethyl)pyridin-3-yl]methoxy}-1-[(2S)-oxane-2-carbonyl]pyrrolidine-2-carboxylic acid] |
| 1000 to 10000 | 1000 to 10000 | +++ (≥350) | +++ (≥200) | COc1ncc(C(F)(F)F)cc1CO[C@H]1[C@H](C(C)(C)C)[C@@H](C(=O)O)N(C(=O)[C@@H]2CCCCO2)[C@H]1c1ccccc1-c1ccc(C(F)(F)F)nc1 [Example 208, (2S,3R,4S,5S)-3-tert-butyl-4-{[2-methoxy-5-(trifluoromethyl)pyridin-3-yl]methoxy}-1-[(2S)-oxane-2-carbonyl]-5-{2-[6-(trifluoromethyl)pyridin-3-yl]phenyl}pyrrolidine-2-carboxylic acid] |
| 1000 to 10000 | 1000 to 10000 | +++ (≥350) | ++ (≥100 and <200) | CCOc1cncc(-c2ccccc2[C@H]2[C@@H](OCc3cc(C(F)(F)F)cnc3OC)[C@H](C(C)(C)C)[C@@H](C(=O)O)N2C(=O)[C@@H]2CCCCO2)c1 [Example 209, (2S,3R,4S,5S)-3-tert-butyl-5-[2-(5-ethoxypyridin-3-yl)phenyl]-4-{[2-methoxy-5-(trifluoromethyl)pyridin-3-yl]methoxy}-1-[(2S)-oxane-2-carbonyl]pyrrolidine-2-carboxylic acid] |
| 1000 to 10000 | < 1000 | +++ (≥350) | +++ (≥200) | COc1ccc(C(C)(C)C)cc1CO[C@H]1[C@H](C(C)(C)C)[C@@H](C(=O)O)N(C(=O)[C@@H]2CCCCO2)[C@H]1c1cccc2ccccc12 [Example 211, (2S,3R,4S,5S)-3-tert-butyl-4-[(5-tert-butyl-2-methoxyphenyl)methoxy]-5-(naphthalen-1-yl)-1-[(2S)-oxane-2-carbonyl]pyrrolidine-2-carboxylic acid] |
| 1000 to 10000 | 1000 to 10000 | +++ (≥350) | ++ (≥100 and <200) | COc1ncc(C(F)(F)F)cc1CO[C@H]1[C@H](C(C)(C)C)[C@@H](C(=O)O)N(C(=O)[C@@H]2CCCCO2)[C@H]1c1cccc2ccoc12 [Example 212, (2S,3R,4S,5S)-5-(1-benzofuran-7-yl)-3-tert-butyl-4-{[2-methoxy-5-(trifluoromethyl)pyridin-3-yl]methoxy}-1-[(2S)-oxane-2-carbonyl]pyrrolidine-2-carboxylic acid] |
| 1000 to 10000 | < 1000 | +++ (≥350) | +++ (≥200) | COc1ncc(C(F)(F)F)cc1CO[C@H]1[C@H](C(C)(C)C)[C@@H](C(=O)O)N(C(=O)[C@@H]2CCCCO2)[C@H]1c1ccccc1CC(C)C [Example 213, (2S,3R,4S,5S)-3-tert-butyl-4-{[2-methoxy-5-(trifluoromethyl)pyridin-3-yl]methoxy}-5-[2-(2-methylpropyl)phenyl]-1-[(2S)-oxane-2-carbonyl]pyrrolidine-2-carboxylic acid] |
| 1000 to 10000 | 1000 to 10000 | ++ (≥150 and <350) | + (<100) | COc1cccc(S(=O)(=O)N2[C@H](C(=O)O)[C@@H](C(C)(C)C)[C@H](OCc3cc(C4CCC4)cnc3OC)[C@@H]2c2ccccc2C2CC2)n1 [Example 214, (2S,3R,4S,5S)-3-tert-butyl-4-[(5-cyclobutyl-2-methoxypyridin-3-yl)methoxy]-5-(2-cyclopropylphenyl)-1-(6-methoxypyridine-2-sulfonyl)pyrrolidine-2-carboxylic acid] |
| < 1000 | < 1000 | +++ (≥350) | +++ (≥200) | COc1ccc(C2(C)CCC2)cc1CO[C@H]1[C@H](C(C)(C)C)[C@@H](C(=O)O)N(C(=O)[C@@H]2CCCCO2)[C@H]1c1ccccc1C [Example 215, (2S,3R,4S,5S)-3-tert-butyl-4-{[2-methoxy-5-(1-methylcyclobutyl)phenyl]methoxy}-5-(2-methylphenyl)-1-[(2S)-oxane-2-carbonyl]pyrrolidine-2-carboxylic acid] |
| 1000 to 10000 | < 1000 | +++ (≥350) | + (<100) | COc1ncc(C(F)(F)F)cc1CO[C@H]1[C@H](C(C)(C)C)[C@@H](C(=O)O)N(C(=O)[C@@H]2CCCCO2)[C@H]1c1cccc2c1OCC2 [Example 216, (2S,3R,4S,5S)-3-tert-butyl-5-(2,3-dihydro-1-benzofuran-7-yl)-4-{[2-methoxy-5-(trifluoromethyl)pyridin-3-yl]methoxy}-1-[(2S)-oxane-2-carbonyl]pyrrolidine-2-carboxylic acid] |
| 1000 to 10000 | < 1000 | +++ (≥350) | +++ (≥200) | COc1ncc(C2CC2)cc1CO[C@H]1[C@H](C(C)(C)C)[C@@H](C(=O)O)N(C(=O)[C@@H]2CCCCO2)[C@H]1c1ccccc1C [Example 217, (2S,3R,4S,5S)-3-tert-butyl-4-[(5-cyclopropyl-2-methoxypyridin-3-yl)methoxy]-5-(2-methylphenyl)-1-[(2S)-oxane-2-carbonyl]pyrrolidine-2-carboxylic acid] |
| < 1000 | < 1000 | +++ (≥350) | +++ (≥200) | COc1ncc(C2CCC2)cc1CO[C@H]1[C@H](C(C)(C)C)[C@@H](C(=O)O)N(C(=O)[C@@H]2CCCCO2)[C@H]1c1cccc2c1CCCC2 [Example 218, (2S,3R,4S,5S)-3-tert-butyl-4-[(5-cyclobutyl-2-methoxypyridin-3-yl)methoxy]-1-[(2S)-oxane-2-carbonyl]-5-(5,6,7,8-tetrahydronaphthalen-1-yl)pyrrolidine-2-carboxylic acid] |
| < 1000 | < 1000 | +++ (≥350) | +++ (≥200) | COc1ncc(C(F)(F)F)cc1CO[C@H]1[C@H](C(C)(C)C)[C@@H](C(=O)O)N(C(=O)[C@@H]2CCCCO2)[C@H]1c1cccc2c1CCCC2 [Example 219, (2S,3R,4S,5S)-3-tert-butyl-4-{[2-methoxy-5-(trifluoromethyl)pyridin-3-yl]methoxy}-1-[(2S)-oxane-2-carbonyl]-5-(5,6,7,8-tetrahydronaphthalen-1-yl)pyrrolidine-2-carboxylic acid] |
| 1000 to 10000 | < 1000 | +++ (≥350) | ++ (≥100 and <200) | COc1nc2cc(C)ccc2cc1CO[C@H]1[C@H](C(C)(C)C)[C@@H](C(=O)O)N(C(=O)[C@@H]2CCCCO2)[C@H]1c1ccccc1C [Example 220, (2S,3R,4S,5S)-3-tert-butyl-4-[(2-methoxy-7-methylquinolin-3-yl)methoxy]-5-(2-methylphenyl)-1-[(2S)-oxane-2-carbonyl]pyrrolidine-2-carboxylic acid] |
| 1000 to 10000 | 1000 to 10000 | +++ (≥350) | +++ (≥200) | COc1nc(C(C)(C)C)ccc1CO[C@H]1[C@H](C(C)(C)C)[C@@H](C(=O)O)N(C(=O)[C@@H]2CCCCO2)[C@H]1c1ccccc1C [Example 221, (2S,3R,4S,5S)-3-tert-butyl-4-[(6-tert-butyl-2-methoxypyridin-3-yl)methoxy]-5-(2-methylphenyl)-1-[(2S)-oxane-2-carbonyl]pyrrolidine-2-carboxylic acid] |
